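Protocol summary: plate cells (96-well), add compound at 5 concentrations, incubate 48 h, interpolate endpoints linearly. GI50 is the concentration that inhibits growth by half.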 Active and inactive are the calls of the source. Cut-off read from the data, not from the text of the source: active = GI50 up to about 1.1 µM and inactive = higher. Square brackets hold non-standard residues; d marks the D form. Peptide text beside a SMILES is read from it. * marks the point of attachment. ξ: configuration not given here. ξD = NC(CC(=O)O)C(=O)O; Ac3c = NC1(C(=O)O)CC1; Boc = CC(C)(C)OC(=O)*; OtBu = CC(C)(C)O*
Key:
Assay in all cases: inhibition of tumour cell growth, NCI panel, 48 h
786-0 = tested on: 786-0
A549 = tested on: A549
BT-549 = tested on: BT-549
EKVX = tested on: EKVX
HCC 2998 = tested on: HCC 2998
HOP-62 = tested on: HOP-62
HOP-92 = tested on: HOP-92
MOLT-4 = tested on: MOLT-4
RXF 393 = tested on: RXF 393
SF-539 = tested on: SF-539
SK-MEL-28 = tested on: SK-MEL-28
SK-MEL-2 = tested on: SK-MEL-2
SK-OV-3 = tested on: SK-OV-3
SN12C = tested on: SN12C
SNB-75 = tested on: SNB-75
SR = tested on: SR
SW-620 = tested on: SW-620
TK-10 = tested on: TK-10
NCI/ADR-RES = tested on: NCI/ADR-RES

Measured: GI50

COC1CC(OC2CCC3(C)C(=CCC4C3C(OC(C)=O)C(OC(=O)CC(C)C)C3(C)C(C(C)=O)CCC43O)C2)OC(C)C1OC1CC(OC)C(OC2CC(OC)C(OC3OC(C)C(O)C(OC)C3O)C(C)O2)C(C)O1 (stereo unspecified)
inactive: 786-0 24.9 µM | A549 37.2 µM | BT-549 24.5 µM | EKVX 34.8 µM | HCC 2998 24.4 µM | HOP-62 > 100 µM | HOP-92 22.5 µM | MOLT-4 23.8 µM | RXF 393 20.1 µM | SF-539 21.9 µM | SK-MEL-28 36 µM | SK-MEL-2 24.7 µM | SK-OV-3 51.1 µM | SN12C 34.8 µM | SNB-75 24.4 µM | SR 31.5 µM | SW-620 31.3 µM | TK-10 25.9 µM

NC(=S)N/N=C1/CCCC2CCCC[C@@H]12 (stereo partly specified)
inactive: 786-0 > 100 µM | A549 > 100 µM | EKVX 35 µM | HCC 2998 > 100 µM | HOP-62 > 100 µM | HOP-92 > 100 µM | MOLT-4 > 100 µM | NCI/ADR-RES > 100 µM | RXF 393 > 100 µM | SF-539 > 100 µM | SK-MEL-28 > 100 µM | SK-MEL-2 > 100 µM | SK-OV-3 > 100 µM | SNB-75 > 100 µM | SR > 100 µM | SW-620 > 100 µM | TK-10 > 100 µM

CCCCCCCCCC(O)CC(=O)c1c(O)cccc1O (stereo unspecified)
inactive: 786-0 19.1 µM | A549 23.6 µM | EKVX 21.9 µM | HCC 2998 12.4 µM | HOP-62 16 µM | HOP-92 25.4 µM | MOLT-4 19.5 µM | NCI/ADR-RES 18.4 µM | RXF 393 16.9 µM | SF-539 20.3 µM | SK-MEL-28 41.5 µM | SK-MEL-2 18.4 µM | SK-OV-3 20 µM | SN12C 31.3 µM | SNB-75 18.7 µM | SW-620 39.5 µM | TK-10 21.8 µM

NC(=S)N/N=C\CC(O)(C(F)(F)F)C(F)(F)F
inactive: 786-0 > 10 µM | A549 > 10 µM | EKVX > 10 µM | HCC 2998 > 10 µM | HOP-62 > 10 µM | HOP-92 > 10 µM | MOLT-4 > 10 µM | NCI/ADR-RES > 10 µM | RXF 393 > 10 µM | SF-539 > 10 µM | SK-MEL-28 > 10 µM | SK-MEL-2 > 10 µM | SK-OV-3 > 10 µM | SN12C > 10 µM | SNB-75 > 10 µM | SR > 10 µM | SW-620 > 10 µM | TK-10 > 10 µM

COC(=O)C1(NC(=O)C(CC(=O)OC(C)(C)C)NC(=O)OC(C)(C)C)CC1 (stereo unspecified) (Boc-[ξD](OtBu)-[Ac3c]-OMe)
inactive: 786-0 > 100 µM | A549 > 100 µM | BT-549 > 100 µM | EKVX > 100 µM | HCC 2998 > 100 µM | HOP-62 > 100 µM | MOLT-4 > 100 µM | NCI/ADR-RES > 100 µM | RXF 393 > 100 µM | SF-539 > 100 µM | SK-MEL-28 > 100 µM | SK-MEL-2 > 100 µM | SK-OV-3 7.87 µM | SN12C > 100 µM | SNB-75 > 100 µM | SW-620 > 100 µM | TK-10 > 100 µM

C/N=C(\N)c1ccc(NC(=N)c2ccc(C(=N)Nc3ccc(/C(N)=N/C)cc3)cc2)cc1
inactive: 786-0 > 100 µM | A549 > 100 µM | HOP-62 > 100 µM | HOP-92 76 µM | MOLT-4 > 100 µM | RXF 393 > 100 µM | SF-539 > 100 µM | SK-MEL-28 > 100 µM | SK-MEL-2 > 100 µM | SK-OV-3 > 100 µM | SN12C > 100 µM | SNB-75 > 100 µM | SW-620 > 100 µM | TK-10 > 100 µM

CC(=O)Oc1cc2c(n(C)c1=O)CCC2
inactive: 786-0 > 100 µM | A549 > 100 µM | BT-549 > 100 µM | EKVX > 100 µM | HCC 2998 81.7 µM | HOP-62 > 100 µM | HOP-92 > 100 µM | MOLT-4 > 100 µM | NCI/ADR-RES 35.5 µM | SF-539 > 100 µM | SK-MEL-28 > 100 µM | SK-MEL-2 > 100 µM | SK-OV-3 > 100 µM | SN12C > 100 µM | SNB-75 > 100 µM | SW-620 > 100 µM | TK-10 > 100 µM

c1ccc(N2N=NC3C4CC(C5c6ccccc6C45)C32)cc1 (stereo unspecified)
inactive: 786-0 59 µM | A549 33.8 µM | EKVX 37.4 µM | HOP-62 64.4 µM | HOP-92 19.1 µM | MOLT-4 17.1 µM | RXF 393 15.4 µM | SF-539 78.5 µM | SK-OV-3 31.5 µM | SN12C 33.6 µM | SNB-75 35.7 µM | SR 20.2 µM | SW-620 36.6 µM | TK-10 > 100 µM

NC1CCCCC1.O=P(O)(O)C(O)/C=C/c1ccccc1 (stereo unspecified)
inactive: 786-0 > 100 µM | A549 > 100 µM | BT-549 > 100 µM | EKVX > 100 µM | HCC 2998 > 100 µM | HOP-62 > 100 µM | HOP-92 > 100 µM | MOLT-4 > 100 µM | NCI/ADR-RES > 100 µM | RXF 393 > 100 µM | SK-MEL-28 > 100 µM | SK-MEL-2 > 100 µM | SK-OV-3 > 100 µM | SN12C > 100 µM | SNB-75 > 100 µM | SW-620 > 100 µM | TK-10 > 100 µM

O=[N+]([O-])/C(C(Cl)=C(Cl)Cl)=C(/Nc1cccc2cccnc12)n1nnc2ccccc21
inactive: 786-0 14.3 µM | A549 27.3 µM | BT-549 14.2 µM | EKVX 24.4 µM | HCC 2998 44.1 µM | HOP-62 19.2 µM | MOLT-4 3.57 µM | NCI/ADR-RES 21.8 µM | SF-539 13.4 µM | SK-MEL-28 18.4 µM | SK-MEL-2 15.3 µM | SK-OV-3 15.9 µM | SN12C 16.3 µM | SNB-75 19.4 µM | SW-620 15.8 µM

COc1cc(C(Cc2ccccc2)NC(C)=O)oc(=O)c1 (stereo unspecified)
inactive: 786-0 > 100 µM | A549 > 100 µM | EKVX > 100 µM | HCC 2998 > 100 µM | HOP-62 > 100 µM | HOP-92 > 100 µM | RXF 393 > 100 µM | SK-MEL-28 > 100 µM | SK-MEL-2 > 100 µM | SK-OV-3 > 100 µM | SN12C > 100 µM | SNB-75 25 µM | SW-620 > 100 µM | TK-10 4.14 µM

CC(=O)CC1=C(OC(C)C)C2(OCCO2)C1O (stereo unspecified)
inactive: 786-0 > 100 µM | A549 > 100 µM | BT-549 > 100 µM | EKVX > 100 µM | HOP-62 > 100 µM | HOP-92 > 100 µM | MOLT-4 > 100 µM | RXF 393 > 100 µM | SF-539 > 100 µM | SK-MEL-28 > 100 µM | SK-MEL-2 > 100 µM | SK-OV-3 > 100 µM | SN12C > 100 µM | SNB-75 > 100 µM | SW-620 > 100 µM | TK-10 > 100 µM

C=C(C)CC1(O)C(=O)C(OCC)=C1OCC (stereo unspecified)
inactive: 786-0 > 100 µM | A549 > 100 µM | BT-549 > 100 µM | EKVX > 100 µM | HOP-62 > 100 µM | HOP-92 48.6 µM | MOLT-4 > 100 µM | NCI/ADR-RES > 100 µM | SF-539 > 100 µM | SK-MEL-28 > 100 µM | SK-MEL-2 > 100 µM | SK-OV-3 > 100 µM | SN12C > 100 µM | SNB-75 79.6 µM | SW-620 > 100 µM | TK-10 > 100 µM

COC(=O)Nc1nc2cc(NS(=O)(=O)c3ccc(Cl)cc3)ccc2[nH]1
inactive: 786-0 17.7 µM | A549 15.9 µM | BT-549 13.4 µM | EKVX 5.78 µM | HOP-62 10.7 µM | HOP-92 1.84 µM | MOLT-4 4.53 µM | NCI/ADR-RES 8.59 µM | RXF 393 7.23 µM | SF-539 7.21 µM | SK-MEL-28 6.79 µM | SK-MEL-2 6.37 µM | SK-OV-3 12.2 µM | SN12C 16.3 µM | SNB-75 2.35 µM | SW-620 5.11 µM | TK-10 2.7 µM

CCOc1ncn(-c2ccc(NC(=S)NC3OC(CO)C(O)C(O)C3O)cc2)n1 (stereo unspecified)
inactive: 786-0 > 100 µM | A549 > 100 µM | BT-549 > 100 µM | EKVX > 100 µM | HCC 2998 > 100 µM | HOP-62 > 100 µM | HOP-92 > 100 µM | MOLT-4 > 100 µM | SF-539 > 100 µM | SK-MEL-28 > 100 µM | SK-OV-3 > 100 µM | SN12C > 100 µM | SNB-75 > 100 µM | SR > 100 µM | SW-620 > 100 µM | TK-10 > 100 µM

COc1cc(OC)c(OC)cc1/C=C1\C=Cc2ccccc21
inactive: 786-0 28.1 µM | A549 26.5 µM | EKVX 19.2 µM | HCC 2998 13.5 µM | HOP-62 15.9 µM | MOLT-4 6.31 µM | NCI/ADR-RES 17.4 µM | RXF 393 11.4 µM | SF-539 15.2 µM | SK-MEL-28 15.7 µM | SK-MEL-2 > 10 µM | SK-OV-3 19.7 µM | SN12C 18.8 µM | SNB-75 2.04 µM | SR 5.04 µM | SW-620 11.1 µM | TK-10 17.3 µM

COc1cc(OC)c2nc(C)c3c(c2c1)SCC3
inactive: 786-0 19.5 µM | A549 21.1 µM | EKVX 10.1 µM | HCC 2998 46.9 µM | HOP-62 18.2 µM | MOLT-4 > 100 µM | NCI/ADR-RES 27.4 µM | RXF 393 24.3 µM | SF-539 18.5 µM | SK-MEL-28 31 µM | SK-MEL-2 27.7 µM | SK-OV-3 27.7 µM | SN12C 25.5 µM | SR 20.5 µM | SW-620 27 µM | TK-10 19.5 µM

Reference: ChEMBL document CHEMBL1201862, “PubChem BioAssay data set” (2004)
